Consider four compounds from patent publication US20130053365A1, “DIHYDROPYRIDOPHTHALAZINONE INHIBITORS OF POLY(ADP-RIBOSE)POLYMERASE (PARP)” (BioMarin Pharmaceutical, Inc., priority 2011, published 2013).

For assay [1], the target named is T1, PARP-1 (Homo sapiens, UniProt P09874). Particulars: literature value, Farmer et al., Nature 2005; read-out: Ki (PARP-1 inhibitor); cited from earlier work.
Target sequence in this assay (P09874 whole entry, species assumed): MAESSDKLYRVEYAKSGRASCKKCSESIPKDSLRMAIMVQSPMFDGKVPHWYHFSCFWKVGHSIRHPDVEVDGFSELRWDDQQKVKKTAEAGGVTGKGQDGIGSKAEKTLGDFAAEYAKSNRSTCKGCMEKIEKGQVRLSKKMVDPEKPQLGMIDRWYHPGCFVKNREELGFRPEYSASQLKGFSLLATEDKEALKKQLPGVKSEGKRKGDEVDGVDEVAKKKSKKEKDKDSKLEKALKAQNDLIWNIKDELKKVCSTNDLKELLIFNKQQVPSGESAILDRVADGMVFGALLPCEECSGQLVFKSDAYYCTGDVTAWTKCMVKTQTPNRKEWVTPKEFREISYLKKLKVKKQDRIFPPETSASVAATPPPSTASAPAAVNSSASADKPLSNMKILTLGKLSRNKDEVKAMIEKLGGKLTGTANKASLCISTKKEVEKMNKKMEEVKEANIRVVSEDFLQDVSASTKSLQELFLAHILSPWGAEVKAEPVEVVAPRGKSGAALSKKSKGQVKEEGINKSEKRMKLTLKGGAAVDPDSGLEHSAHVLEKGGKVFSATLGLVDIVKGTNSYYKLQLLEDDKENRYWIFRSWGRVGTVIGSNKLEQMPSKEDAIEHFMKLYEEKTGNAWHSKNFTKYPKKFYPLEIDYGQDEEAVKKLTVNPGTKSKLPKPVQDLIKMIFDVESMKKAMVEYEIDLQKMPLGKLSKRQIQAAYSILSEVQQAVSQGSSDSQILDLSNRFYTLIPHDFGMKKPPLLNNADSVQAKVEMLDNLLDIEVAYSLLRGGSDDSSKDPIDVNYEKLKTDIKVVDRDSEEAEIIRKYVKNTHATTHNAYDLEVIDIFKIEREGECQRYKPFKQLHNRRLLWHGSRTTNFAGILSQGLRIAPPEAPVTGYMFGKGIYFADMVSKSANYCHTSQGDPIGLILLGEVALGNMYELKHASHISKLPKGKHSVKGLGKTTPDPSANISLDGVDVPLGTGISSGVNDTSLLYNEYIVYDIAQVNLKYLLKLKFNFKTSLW
Assay [2] relates to BRCA2-deficient cell line V-C8. Conditions: BRCA2-deficient V-C8 compared with BRCA2 wild type control; cited from earlier work.
Assay [3] concerns CAPAN-1 cells. Conditions: CAPAN-1 cells in DMEM with FCS (20% v/v), glutamine and antibiotics; cited from earlier work.
Assay [4] has as its target T1, PARP-1. The assay is described as follows: Universal Chemiluminescent PARP Assay (Trevigen kit), inhibition of human PARP 1 enzyme. It counts as biochemical. More on the design: purchased Trevigen 4676-096-K. Particulars: recombinant human PARP 1 enzyme, read-out: PARP-inhibitory activity. The method, then:
Inhibitory effects of test compounds against human PARP 1 enzyme are assessed using Trevigen's Universal Chemiluminescent PARP Assay Kit (Trevigen CAT #4676-096-K) following the manufacturer's recommended protocol.
Immediately prior to performing the assay, the following reagents are prepared: A) 20× PARP Assay Buffer is diluted to 1× with dH2O; B) 10× PARP Cocktail, which contains a mixture of NAD and biotinylated NAD, is diluted by the addition of 10× Activated DNA and 1× PARP Assay Buffer. Both the PARP Cocktail and Activated DNA are 1× after the dilution; C) all test compounds are initially dissolved in DMSO, and subsequently serial diluted with 1× PARP Assay Buffer; D) recombinant human PARP 1 enzyme is diluted with 1× PARP Assay Buffer to generate 0.5 unit/15 μL; E) 10× Strep-Diluent is diluted to 1× with 1× PBS/0.1% Triton X-100; F) Just before use, Strep-HRP is diluted 500-fold with 1× Strep-Diluent.
The chemiluminescent assays for PARP activity is performed in white 96-well plates that are pre-coated with histones. […]
The reactions are allowed to proceed for 1 hour at room temperature. […] The light output is immediately determined in a plate reader (EnVision, by Perkin Elmer) set up for measuring chemiluminescence.
The % enzyme activity for each compound is then calculated using the following equation: […]
Target sequence in this assay (P09874 whole entry): as the sequence (P09874 whole entry, species assumed) above

Where “and” joins values, the source holds several entries; their conditions need not be identical. Equal entries are not always repeated.

As for `CN(C)Cc1ccc(-c2nc3cccc4c3n2CCNC4=O)cc1` [AG14361], the Ki (in general, a measure of affinity in units of concentration, obtained from inhibition or displacement) in assay [1] was 5 nM. In addition, the “sensitivity in clonogenic survival assay” value in assay [2] is on record as “exhibited sensitivity”.

`O=C(c1cc(Cc2n[nH]c(=O)c3ccccc23)ccc1F)N1CCN(C(=O)C2CC2)CC1` [AZD2281]: the “sensitivity to PARP inhibition in clonogenic survival assay” value in assay [3] was “showing sensitivity to PARP inhibition”.

Take `Cn1ncnc1C1c2n[nH]c(=O)c3cc(F)cc(c23)NCC1c1ccc(F)cc1` (stereo not drawn) [Compound 40, 5-fluoro-9-(4-fluorophenyl)-10-(1-methyl-1H-1,2,4-triazol-5-yl)-7,8,9,10-tetrahydroazepino[4,3,2-de]phthalazin-3(2H)-one]: in assay [4], the IC50 was < 800 nM and 250 to 300 nM.

On to `Cc1nc2c(O)cccc2c(=O)[nH]1` [NU1025], for which the Ki in assay [1] is 50 nM. For the same compound, the “sensitivity in clonogenic survival assay” value in assay [2] was “exhibited sensitivity”.
